# In ChEMBL document CHEMBL4177592, “Discovery of renin inhibitors containing a simple aspartate binding moiety that imparts reduced P450 inhibition” (Bioorg Med Chem Lett, 2017):
# Tests used:
# Renin [1] = target: T1, Renin (Homo sapiens, UniProt P00797); test: Inhibition of trypsin-activated recombinant human Fc-tagged renin expressed in BacMam virus infected HEK-F cells using Arg-Glu-Lys(5-Fam)-Ile-His-Pro-Phe-His-Leu-Val-IleHis-Thr-Lys(5,6 Tamra)-Arg-CONH2 as substrate measured after 2 hrs
# T1 sequence (P00797 whole entry): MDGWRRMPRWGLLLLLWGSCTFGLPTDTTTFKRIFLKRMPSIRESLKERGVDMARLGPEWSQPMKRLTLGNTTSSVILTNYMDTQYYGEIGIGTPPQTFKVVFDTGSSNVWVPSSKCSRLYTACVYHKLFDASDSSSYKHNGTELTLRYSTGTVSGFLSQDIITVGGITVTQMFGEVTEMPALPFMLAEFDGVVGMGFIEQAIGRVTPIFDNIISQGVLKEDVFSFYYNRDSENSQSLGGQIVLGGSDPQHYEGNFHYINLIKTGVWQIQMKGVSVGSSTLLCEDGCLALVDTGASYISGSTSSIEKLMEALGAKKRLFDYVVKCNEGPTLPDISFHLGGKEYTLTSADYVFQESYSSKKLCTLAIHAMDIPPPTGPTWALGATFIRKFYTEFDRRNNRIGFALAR
# Renin [2] = target: T1, Renin; test: Inhibition of renin in human plasma using angiotensinogen as substrate measured for 90 mins by [125I]-angiotensin based radioimmunoassay
# Cytochrome P450 3A4 = Cytochrome P450 3A4 (Homo sapiens, UniProt P08684); test: Inhibition of human CYP3A4 expressed in Escherichia coli co-expressing CYP-reductase using diethoxyfluorescein as substrate measured after 10 mins by fluorescence assay
# Cytochrome P450 3A4, sequence (P08684 whole entry): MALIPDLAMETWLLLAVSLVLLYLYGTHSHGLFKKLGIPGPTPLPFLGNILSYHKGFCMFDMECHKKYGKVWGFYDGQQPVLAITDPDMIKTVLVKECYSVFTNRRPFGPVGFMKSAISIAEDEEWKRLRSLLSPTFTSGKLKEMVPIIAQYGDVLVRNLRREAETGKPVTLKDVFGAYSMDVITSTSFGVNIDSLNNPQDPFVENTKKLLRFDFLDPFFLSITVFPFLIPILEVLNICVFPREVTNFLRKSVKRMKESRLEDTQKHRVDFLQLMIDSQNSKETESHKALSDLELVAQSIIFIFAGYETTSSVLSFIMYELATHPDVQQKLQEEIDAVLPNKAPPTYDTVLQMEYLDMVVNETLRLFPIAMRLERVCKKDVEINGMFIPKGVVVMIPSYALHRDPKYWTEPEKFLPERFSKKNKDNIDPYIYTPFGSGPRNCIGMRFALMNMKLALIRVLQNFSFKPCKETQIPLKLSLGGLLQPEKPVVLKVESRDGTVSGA
SMILES,IC50 (Renin [1]) [nM],IC50 (Renin [2]) [nM],IC50 (Cytochrome P450 3A4) [nM]
CCc1cccc(-c2c(F)cccc2C(O)(CCCNC(=O)OC)[C@@H]2CCCN(C(=O)CC3CCCNC3)C2)c1 (some centres undefined),2,40,–
CCc1cccc(-c2c(F)cccc2C(O)(CCCNC(=O)OC)[C@@H]2CCCN(C(=O)CC[C@@H](N)CO)C2)c1 (some centres undefined),6.3,180,–
CCc1cccc(-c2c(Cl)cccc2C(O)(CCCNC(=O)OC)[C@@H]2CCCN(C(=O)[C@@H]3CC[C@H](NC)C3)C2)c1 (some centres undefined),0.6,4.3,49
CCc1cccc(-c2c(F)cccc2C(O)(CCCNC(=O)OC)[C@@H]2CCCN(C(=O)C3CCCNC3)C2)c1 (some centres undefined),320,–,–
CCc1cccc(-c2c(F)cccc2C(O)(CCCNC(=O)OC)[C@@H]2CCCN(C(=O)CCCCN)C2)c1 (some centres undefined),2,120,–
CCc1cccc(-c2c(F)cccc2C(O)(CCCNC(=O)OC)[C@@H]2CCCN(C(=O)CCC3CCNCC3)C2)c1 (some centres undefined),80,–,–
CCc1cccc(-c2c(F)cccc2C(O)(CCCNC(=O)OC)[C@@H]2CCCN(C(=O)CCN)C2)c1 (some centres undefined),100,–,–
CCc1cccc(-c2c(F)cccc2C(O)(CCCNC(=O)OC)[C@@H]2CCCN(C(=O)CC(O)CNC)C2)c1 (some centres undefined),2,29,840
CCc1cccc(-c2c(F)cccc2C(O)(CCCNC(=O)OC)[C@@H]2CCCN(C(=O)CC(O)CN)C2)c1 (some centres undefined),2,36,440
CCc1cccc(-c2c(F)cccc2C(O)(CCCNC(=O)OC)[C@@H]2CCCN(C(=O)C3CCNCC3)C2)c1 (some centres undefined),6.3,102,–
CCc1cccc(-c2c(F)cccc2C(O)(CCCNC(=O)OC)[C@@H]2CCCN(C(=O)CC[C@H](N)C(=O)OCc3ccccc3)C2)c1 (some centres undefined),16,450,–
CCc1cccc(-c2c(Cl)cccc2C(O)(CCCNC(=O)OC)[C@@H]2CCCN(C(=O)CCCNC)C2)c1 (some centres undefined),1,16,140
CCc1cccc(-c2c(F)cccc2C(O)(CCCNC(=O)OC)[C@@H]2CCCN(C(=O)CC[C@H](N)C(=O)OC)C2)c1 (some centres undefined),25,540,–
CCc1cccc(-c2c(F)cccc2C(O)(CCCNC(=O)OC)[C@@H]2CCCN(C(=O)CCCN(C)C)C2)c1 (some centres undefined),630,–,–
CCc1cccc(-c2c(F)cccc2C(O)(CCCNC(=O)OC)[C@@H]2CCCN(C(=O)CC(CNC)OC)C2)c1 (some centres undefined),5,50,–
CCc1cccc(-c2c(F)cccc2C(O)(CCCNC(=O)OC)[C@@H]2CCCN(C(=O)[C@@H]3CC[C@H](N)C3)C2)c1 (some centres undefined),0.6,3.3,90
CCc1cccc(-c2c(F)cccc2C(O)(CCCNC(=O)OC)[C@@H]2CCCN(C(=O)CCCCCN)C2)c1 (some centres undefined),3.2,100,–
CCc1cccc(-c2c(F)cccc2C(O)(CCCNC(=O)OC)[C@@H]2CCCN(C(=O)C[C@H](O)CN)C2)c1 (some centres undefined),1.3,–,–

SMILES,IC50 (Renin [1]) [nM],IC50 (Renin [2]) [nM],IC50 (Cytochrome P450 3A4) [nM]
CCc1cccc(-c2c(F)cccc2C(O)(CCCNC(=O)OC)[C@@H]2CCCN(C(=O)CN)C2)c1 (some centres undefined),63,3800,–
CCc1cccc(-c2c(F)cccc2C(O)(CCCNC(=O)OC)[C@@H]2CCCN(C(=O)CC[C@H](N)CO)C2)c1 (some centres undefined),20,460,–
CCc1cccc(-c2c(Cl)cccc2C(O)(CCCNC(=O)OC)[C@@H]2CCCN(C(=O)[C@H]3C[C@@H](N)[C@@H](O)C3)C2)c1 (some centres undefined),0.3,1.8,250
CCc1cccc(-c2c(F)cccc2C(O)(CCCNC(=O)OC)[C@@H]2CCCN(C(=O)CC[C@H](N)C(N)=O)C2)c1 (some centres undefined),630,–,–
CCc1cccc(-c2c(F)cccc2C(O)(CCCNC(=O)OC)[C@@H]2CCCN(C(=O)CC[C@H](N)C(=O)O)C2)c1 (some centres undefined),320,–,–
CCc1cccc(-c2c(F)cccc2C(O)(CCCNC(=O)OC)[C@@H]2CCCN(C(=O)CCC3CCCCN3)C2)c1 (some centres undefined),126,–,–
CCc1cccc(-c2c(F)cccc2C(O)(CCCNC(=O)OC)[C@@H]2CCCN(C(=O)CC3CCCN3)C2)c1 (some centres undefined),800,–,–
CCc1cccc(-c2c(F)cccc2C(O)(CCCNC(=O)OC)[C@@H]2CCCN(C(=O)CCCN)C2)c1 (some centres undefined),1,13,240
CCc1cccc(-c2c(F)cccc2C(O)(CCCNC(=O)OC)[C@@H]2CCCN(C(=O)NCCNC)C2)c1 (some centres undefined),6.3,120,–
CCc1cccc(-c2c(F)cccc2C(O)(CCCNC(=O)OC)[C@@H]2CCCN(C(=O)C3CCNC3)C2)c1 (some centres undefined),25,540,–
CCc1cccc(-c2c(F)cccc2C(O)(CCCNC(=O)OC)[C@@H]2CCCN(C(=O)C3CNCCO3)C2)c1 (some centres undefined),1000,–,–
CCc1cccc(-c2c(F)cccc2C(O)(CCCNC(=O)OC)[C@@H]2CCCN(C(=O)C3CCCCN3)C2)c1 (some centres undefined),2000,–,–
CCc1cccc(-c2c(F)cccc2C(O)(CCCNC(=O)OC)[C@@H]2CCCN(C(=O)CC3CNCCO3)C2)c1 (some centres undefined),1.6,24,–
CCc1cccc(-c2c(F)cccc2C(O)(CCCNC(=O)OC)[C@@H]2CCCN(C(=O)CC3CCNCC3)C2)c1 (some centres undefined),1.6,23,–
CCc1cccc(-c2c(F)cccc2C(O)(CCCNC(=O)OC)[C@@H]2CCCN(C(=O)NCCN)C2)c1 (some centres undefined),3.2,150,–
CCc1cccc(-c2c(F)cccc2C(O)(CCCNC(=O)OC)[C@@H]2CCCN(C(=O)CCCNCCO)C2)c1 (some centres undefined),2.5,63,–
CCc1cccc(-c2c(Cl)cccc2C(O)(CCCNC(=O)OC)[C@@H]2CCCN(C(=O)[C@@H]3CC[C@H](N)C3)C2)c1 (some centres undefined),3.1,8.4,34
CCc1cccc(-c2c(F)cccc2C(O)(CCCNC(=O)OC)[C@@H]2CCCN(C(=O)[C@@H](O)CCN)C2)c1 (some centres undefined),40,840,–
